Data reported in patent publication US8901118B2, “Compounds and methods for kinase modulation, and indications therefor” (Plexxikon Inc., priority 2010, dated 2014).
pIC50: −log10 of the molar value.

The compounds below were run against CYP3A4(BQ) (Homo sapiens, UniProt P08684) (assay: CYP3A4(BQ) inhibition). Details: CYP3A4, substrate BQ; read-out: Cyp IC50 3A4(BQ).
Format: in vitro ADME
Outline: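 After 30 min incubation at 37° C, plates were read on a Tecan Safire 2 at 409 ex/460 em, and IC50 values came from signal plotted against compound concentration. Enzyme and substrate were sourced from BD Biosciences. The cofactor mix held 1.3% NADPH Regeneration system Solution A, 1.04% Solution B, 5% acetonitrile and 0.05% DMSO.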

Sequence of CYP3A4(BQ) (P08684 whole entry): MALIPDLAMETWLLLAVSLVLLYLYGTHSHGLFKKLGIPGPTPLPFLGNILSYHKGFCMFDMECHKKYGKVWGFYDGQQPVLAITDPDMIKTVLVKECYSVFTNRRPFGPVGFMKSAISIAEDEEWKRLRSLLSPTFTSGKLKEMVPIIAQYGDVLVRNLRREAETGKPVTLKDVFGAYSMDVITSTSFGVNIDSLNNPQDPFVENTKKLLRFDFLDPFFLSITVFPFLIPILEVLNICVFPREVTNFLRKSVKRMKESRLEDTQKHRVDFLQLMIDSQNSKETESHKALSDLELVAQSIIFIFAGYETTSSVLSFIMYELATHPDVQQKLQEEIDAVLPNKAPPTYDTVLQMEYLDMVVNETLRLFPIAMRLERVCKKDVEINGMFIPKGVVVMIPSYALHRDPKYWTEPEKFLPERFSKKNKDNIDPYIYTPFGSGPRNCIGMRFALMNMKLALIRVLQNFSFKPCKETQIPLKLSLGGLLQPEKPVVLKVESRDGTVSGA

| Structure (SMILES) | pIC50 |
| --- | --- |
| Clc1cnc2[nH]cc(Cc3cnc(NC4CCCCC4)nc3)c2c1 [Compound P-3001, [5-(5-chloro-1H-pyrrolo[2,3-b]pyridin-3-ylmethyl)-pyrimidin-2-yl]-cyclohexyl-amine] | < 5.00 |
| Cc1cnc2[nH]cc(C(=O)c3ccc(Nc4ccc(C)nc4)nc3F)c2c1 [Compound P-3043, [2-Fluoro-6-(6-methyl-pyridin-3-ylamino)-pyridin-3-yl]-(5-methyl-1H-pyrrolo[2,3-b]pyridin-3-yl)-methanone] | < 5.00 |
| Cc1ccc(Nc2ccc(C(=O)c3c[nH]c4ncc(Cl)cc34)c(F)n2)cn1 [Compound P-3044, (5-Chloro-1H-pyrrolo[2,3-b]pyridin-3-yl)-[2-fluoro-6-(6-methyl-pyridin-3-ylamino)-pyridin-3-yl]-methanone] | < 5.00 |
| CCc1ccc(Nc2ccc(Cc3c[nH]c4ncc(C)cc34)c(F)n2)cn1 [Compound P-3048, (6-Ethyl-pyridin-3-yl)-[6-fluoro-5-(5-methyl-1H-pyrrolo[2,3-b]pyridin-3-ylmethyl)-pyridin-2-yl]-amine] | < 5.00 |
| CCc1ccc(Nc2ccc(C(=O)c3c[nH]c4ncc(C)cc34)c(F)n2)cn1 [Compound P-3049, [6-(6-Ethyl-pyridin-3-ylamino)-2-fluoro-pyridin-3-yl]-(5-methyl-1H-pyrrolo[2,3-b]pyridin-3-yl)-methanone] | < 5.00 |
| Cc1cnc2[nH]cc(Cc3ccc(Nc4ccc(C5CC5)nc4)nc3F)c2c1 [Compound P-3050, (6-Cyclopropyl-pyridin-3-yl)-[6-fluoro-5-(5-methyl-1H-pyrrolo[2,3-b]pyridin-3-ylmethyl)-pyridin-2-yl]-amine] | < 5.00 |
| Cc1cnc2[nH]cc(C(=O)c3ccc(Nc4ccc(C5CC5)nc4)nc3F)c2c1 [Compound P-3051, [6-(6-Cyclopropyl-pyridin-3-ylamino)-2-fluoro-pyridin-3-yl]-(5-methyl-1H-pyrrolo[2,3-b]pyridin-3-yl)-methanone] | < 5.00 |
| O=C(c1ccc(Nc2ccc(C3CC3)nc2)nc1F)c1c[nH]c2ncccc12 [Compound P-3052, [6-(6-Cyclopropyl-pyridin-3-ylamino)-2-fluoro-pyridin-3-yl]-(1H-pyrrolo[2,3-b]pyridin-3-yl)-methanone] | < 5.00 |
| Fc1nc(Nc2ccc(C3CC3)nc2)ccc1Cc1c[nH]c2ncccc12 [Compound P-3053, (6-Cyclopropyl-pyridin-3-yl)-[6-fluoro-5-(1H-pyrrolo[2,3-b]pyridin-3-ylmethyl)-pyridin-2-yl]-amine] | < 5.00 |
| COc1ccc(Nc2ccc(Cc3c[nH]c4ncnc(C)c34)c(F)n2)cn1 [Compound P-4002, [6-Fluoro-5-(4-methyl-7H-pyrrolo[2,3-d]pyrimidin-5-ylmethyl)-pyridin-2-yl]-(6-methoxy-pyridin-3-yl)-amine] | < 5.00 |
| COCCOc1ncnc2[nH]cc(Cc3ccc(Nc4ccc(OC)nc4)nc3F)c12 [Compound P-4019, {6-Fluoro-5-[4-(2-methoxy-ethoxy)-7H-pyrrolo[2,3-d]pyrimidin-5-ylmethyl]-pyridin-2-yl}-(6-methoxy-pyridin-3-yl)-amine] | < 5.00 |
| CCOc1ncnc2[nH]cc(C(=O)c3ccc(Nc4ccc(OC)nc4)nc3F)c12 [Compound P-4025, (4-Ethoxy-7H-pyrrolo[2,3-d]pyrimidin-5-yl)-[2-fluoro-6-(6-methoxy-pyridin-3-ylamino)-pyridin-3-yl]-methanone] | < 5.00 |

Further lines, results first:

| pIC50 | Structure (SMILES) |
| --- | --- |
| < 5.00 | Cc1cnc2[nH]cc(Cc3cnc(Nc4ccc(C(F)(F)F)nc4)nc3)c2c1 [Compound P-3018, [5-(5-Methyl-1H-pyrrolo[2,3-b]pyridin-3-ylmethyl)-pyrimidin-2-yl]-(6-trifluoromethyl-pyridin-3-yl)-amine] |
| < 5.00 | COc1ccc(Nc2ccc(C(=O)c3c[nH]c4ncc(C)cc34)c(F)n2)cn1 [Compound P-3040, [2-Fluoro-6-(6-methoxy-pyridin-3-ylamino)-pyridin-3-yl]-(5-methyl-1H-pyrrolo[2,3-b]pyridin-3-yl)-methanone] |
| < 5.00 | COc1ncnc2[nH]cc(Cc3ccc(Nc4ccc(Cl)nc4)nc3F)c12 [Compound P-4003, (6-Chloro-pyridin-3-yl)-[6-fluoro-5-(4-methoxy-7H-pyrrolo[2,3-d]pyrimidin-5-ylmethyl)-pyridin-2-yl]-amine] |
| < 5.00 | CCOc1ncnc2[nH]cc(Cc3ccc(Nc4ccc(C)nc4)nc3F)c12 [Compound P-4017, [5-(4-Ethoxy-7H-pyrrolo[2,3-d]pyrimidin-5-ylmethyl)-6-fluoro-pyridin-2-yl]-(6-methyl-pyridin-3-yl)-amine] |
| < 5.00 | CCOc1ncnc2[nH]cc(Cc3ccc(Nc4ccc(OC)nc4)nc3F)c12 [Compound P-4018, [5-(4-Ethoxy-7H-pyrrolo[2,3-d]pyrimidin-5-ylmethyl)-6-fluoro-pyridin-2-yl]-(6-methoxy-pyridin-3-yl)-amine] |
| < 5.00 | COc1ccc(Nc2ccc(C(=O)c3c[nH]c4ncnc(C5CC5)c34)c(F)n2)cn1 [Compound P-4022, (4-cyclopropyl-7H-pyrrolo[2,3-d]pyrimidin-5-yl)-[2-fluoro-6-(6-methoxy-pyridin-3-ylamino)-pyridin-3-yl]-methanone] |
| < 5.00 | CCOc1ccc(Nc2ccc(C(=O)c3c[nH]c4ncnc(OC)c34)c(F)n2)cn1 [Compound P-4024, [6-(6-Ethoxy-pyridin-3-ylamino)-2-fluoro-pyridin-3-yl]-(4-methoxy-7H-pyrrolo[2,3-d]pyrimidin-5-yl)-methanone] |
| < 5.00 | CCc1ccc(Nc2ccc(Cc3c[nH]c4ncnc(C5CC5)c34)c(F)n2)cn1 [Compound P-4028, [5-(4-Cyclopropyl-7H-pyrrolo[2,3-d]pyrimidin-5-ylmethyl)-6-fluoro-pyridin-2-yl]-(6-ethyl-pyridin-3-yl)-amine] |
| < 5.00 | CCc1ccc(Nc2ccc(C(=O)c3c[nH]c4ncnc(C5CC5)c34)c(F)n2)cn1 [Compound P-4029, (4-Cyclopropyl-7H-pyrrolo[2,3-d]pyrimidin-5-yl)-[6-(6-ethyl-pyridin-3-ylamino)-2-fluoro-pyridin-3-yl]-methanone] |
| < 5.00 | Cc1ccc(Nc2ccc(Cc3c[nH]c4ncnc(C5CC5)c34)c(F)n2)cn1 [Compound P-4030, [5-(4-Cyclopropyl-7H-pyrrolo[2,3-d]pyrimidin-5-ylmethyl)-6-fluoro-pyridin-2-yl]-(6-methyl-pyridin-3-yl)-amine] |
| < 5.00 | Cc1ccc(Nc2ccc(C(=O)c3c[nH]c4ncnc(C5CC5)c34)c(F)n2)cn1 [Compound P-4031, (4-Cyclopropyl-7H-pyrrolo[2,3-d]pyrimidin-5-yl)-[2-fluoro-6-(6-methyl-pyridin-3-ylamino)-pyridin-3-yl]-methanone] |
| 5.00 to 5.30 | CCn1cc(Nc2ccc(Cc3c[nH]c4ncnc(C5CC5)c34)c(F)n2)cn1 [Compound P-4036, [5-(4-Cyclopropyl-7H-pyrrolo[2,3-d]pyrimidin-5-ylmethyl)-6-fluoro-pyridin-2-yl]-(1-ethyl-1H-pyrazol-4-yl)-amine] |
| 5.00 to 5.30 | CCn1cc(Nc2ccc(C(=O)c3c[nH]c4ncnc(C5CC5)c34)c(F)n2)cn1 [Compound P-4037, (4-Cyclopropyl-7H-pyrrolo[2,3-d]pyrimidin-5-yl)-[6-(1-ethyl-1H-pyrazol-4-ylamino)-2-fluoro-pyridin-3-yl]-methanone] |
| < 5.00 | Fc1nc(NC2CCC(F)(F)CC2)ccc1Cc1c[nH]c2ncnc(NCC(F)(F)F)c12 [Compound P-4128, 5-[[6-[(4,4-difluorocyclohexyl)amino]-2-fluoro-3-pyridyl]methyl]-N-(2,2,2-trifluoroethyl)-7H-pyrrolo[2,3-d]pyrimidin-4-amine] |
| > 5.30 | Fc1nc(NC2CCC(F)(F)CC2)ccc1Cc1c[nH]c2ncnc(NC3CC3)c12 [Compound P-4129, N-cyclopropyl-5-[[6-[(4,4-difluorocyclohexyl)amino]-2-fluoro-3-pyridyl]methyl]-7H-pyrrolo[2,3-d]pyrimidin-4-amine] |
| < 5.00 | Fc1nc(Nc2ccc(C3CC3)nc2)ccc1Cc1c[nH]c2ncnc(NCC(F)(F)F)c12 [Compound P-4130, 5-[[6-[(6-cyclopropyl-3-pyridyl)amino]-2-fluoro-3-pyridyl]methyl]-N-(2,2,2-trifluoroethyl)-7H-pyrrolo[2,3-d]pyrimidin-4-amine] |
